Laboratory results: ChEMBL document CHEMBL1909046, “DrugMatrix in vitro pharmacology data”

Legend:
[1] = target: Sodium-dependent dopamine transporter (Homo sapiens, UniProt Q01959); assay: DRUGMATRIX: Dopamine Transporter radioligand binding (ligand: [125I] RTI-55); type: cell membranes, CHO-K1, Membrane; conditions: Not Active = under 50% inhibition at 10 µM
[2] = DRUGMATRIX: Glutamate, NMDA, Agonism radioligand binding (ligand: [3H] CGP-39653); type: cell membranes, Rattus norvegicus, Wistar, Cerebral cortex, Membrane; conditions: Not Active = under 50% inhibition at 10 µM
[3] = target: Voltage-gated inwardly rectifying potassium channel KCNH2 (Homo sapiens, UniProt Q12809); conditions: hek293; note: in other assays of this panel Not Active means under 50% inhibition at 10 µM
Cathepsin G = target: T1, Cathepsin G (Homo sapiens, UniProt P08311); assay: biochemical; type: tissue-based, Neutrophil; conditions: neutrophil;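 note: inhibition of Cathepsin G enzyme activity, tested on an AMC-conjugated peptide substrate; in other assays of this panel Not Active means under 50% inhibition at 10 µM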
T1 sequence (P08311 whole entry): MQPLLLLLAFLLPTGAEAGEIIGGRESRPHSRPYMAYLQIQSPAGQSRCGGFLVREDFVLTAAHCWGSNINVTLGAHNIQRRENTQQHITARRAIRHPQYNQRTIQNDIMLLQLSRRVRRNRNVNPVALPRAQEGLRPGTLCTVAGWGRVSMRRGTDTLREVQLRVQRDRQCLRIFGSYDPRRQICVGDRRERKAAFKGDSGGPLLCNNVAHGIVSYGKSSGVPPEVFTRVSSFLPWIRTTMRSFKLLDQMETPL

Insulin receptor = Insulin receptor (Rattus norvegicus, UniProt P15127); type: cell membranes, Wistar, Liver, Membrane; note: in other assays of this panel Not Active means under 50% inhibition at 10 µM
[4] = target: 5-hydroxytryptamine receptor 2B (Homo sapiens, UniProt P41595); type: cell membranes, CHO-K1, Membrane; conditions: cho-k1; note: in other assays of this panel Not Active means under 50% inhibition at 10 µM
[5] = target: T2, C-C chemokine receptor type 4 (Homo sapiens, UniProt P51679); type: cell membranes, Chem-1, Membrane; conditions: chem-1; note: in other assays of this panel Not Active means under 50% inhibition at 10 µM
T2 sequence (P51679 whole entry): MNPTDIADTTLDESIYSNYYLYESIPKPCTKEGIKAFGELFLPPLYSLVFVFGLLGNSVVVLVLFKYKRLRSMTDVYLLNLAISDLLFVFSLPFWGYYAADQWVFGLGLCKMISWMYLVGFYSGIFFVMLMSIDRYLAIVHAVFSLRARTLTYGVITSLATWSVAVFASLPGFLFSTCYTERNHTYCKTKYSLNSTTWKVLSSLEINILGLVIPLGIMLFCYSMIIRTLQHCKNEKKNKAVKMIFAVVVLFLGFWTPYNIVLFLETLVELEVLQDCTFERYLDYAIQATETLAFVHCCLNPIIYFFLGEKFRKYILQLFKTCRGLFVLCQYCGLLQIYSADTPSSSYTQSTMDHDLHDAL

[6] = DRUGMATRIX: Serotonin (5-Hydroxytryptamine) 5-HT3 radioligand binding (ligand: [3H] GR-65630); type: cell membranes, Membrane; conditions: hek293; Not Active = under 50% inhibition at 10 µM

Sequence of Sodium-dependent dopamine transporter (Q01959 whole entry): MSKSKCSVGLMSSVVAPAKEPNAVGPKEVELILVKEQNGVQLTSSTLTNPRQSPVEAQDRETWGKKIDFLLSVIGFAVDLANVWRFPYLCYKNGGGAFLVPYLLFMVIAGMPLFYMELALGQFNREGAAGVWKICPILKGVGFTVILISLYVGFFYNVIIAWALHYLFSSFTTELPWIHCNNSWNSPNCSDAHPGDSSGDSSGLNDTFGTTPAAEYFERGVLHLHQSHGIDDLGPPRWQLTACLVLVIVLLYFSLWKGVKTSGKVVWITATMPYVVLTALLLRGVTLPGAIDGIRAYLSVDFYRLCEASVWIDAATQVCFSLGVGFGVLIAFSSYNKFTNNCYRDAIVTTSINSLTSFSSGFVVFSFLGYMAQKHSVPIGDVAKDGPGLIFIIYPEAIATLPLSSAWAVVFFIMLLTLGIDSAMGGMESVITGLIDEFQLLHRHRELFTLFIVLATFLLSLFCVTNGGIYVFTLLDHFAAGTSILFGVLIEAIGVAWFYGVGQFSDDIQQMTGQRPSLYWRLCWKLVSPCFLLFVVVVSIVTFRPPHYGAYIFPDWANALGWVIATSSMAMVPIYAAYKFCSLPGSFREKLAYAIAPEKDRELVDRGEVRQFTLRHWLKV
Sequence of Voltage-gated inwardly rectifying potassium channel KCNH2 (Q12809 whole entry): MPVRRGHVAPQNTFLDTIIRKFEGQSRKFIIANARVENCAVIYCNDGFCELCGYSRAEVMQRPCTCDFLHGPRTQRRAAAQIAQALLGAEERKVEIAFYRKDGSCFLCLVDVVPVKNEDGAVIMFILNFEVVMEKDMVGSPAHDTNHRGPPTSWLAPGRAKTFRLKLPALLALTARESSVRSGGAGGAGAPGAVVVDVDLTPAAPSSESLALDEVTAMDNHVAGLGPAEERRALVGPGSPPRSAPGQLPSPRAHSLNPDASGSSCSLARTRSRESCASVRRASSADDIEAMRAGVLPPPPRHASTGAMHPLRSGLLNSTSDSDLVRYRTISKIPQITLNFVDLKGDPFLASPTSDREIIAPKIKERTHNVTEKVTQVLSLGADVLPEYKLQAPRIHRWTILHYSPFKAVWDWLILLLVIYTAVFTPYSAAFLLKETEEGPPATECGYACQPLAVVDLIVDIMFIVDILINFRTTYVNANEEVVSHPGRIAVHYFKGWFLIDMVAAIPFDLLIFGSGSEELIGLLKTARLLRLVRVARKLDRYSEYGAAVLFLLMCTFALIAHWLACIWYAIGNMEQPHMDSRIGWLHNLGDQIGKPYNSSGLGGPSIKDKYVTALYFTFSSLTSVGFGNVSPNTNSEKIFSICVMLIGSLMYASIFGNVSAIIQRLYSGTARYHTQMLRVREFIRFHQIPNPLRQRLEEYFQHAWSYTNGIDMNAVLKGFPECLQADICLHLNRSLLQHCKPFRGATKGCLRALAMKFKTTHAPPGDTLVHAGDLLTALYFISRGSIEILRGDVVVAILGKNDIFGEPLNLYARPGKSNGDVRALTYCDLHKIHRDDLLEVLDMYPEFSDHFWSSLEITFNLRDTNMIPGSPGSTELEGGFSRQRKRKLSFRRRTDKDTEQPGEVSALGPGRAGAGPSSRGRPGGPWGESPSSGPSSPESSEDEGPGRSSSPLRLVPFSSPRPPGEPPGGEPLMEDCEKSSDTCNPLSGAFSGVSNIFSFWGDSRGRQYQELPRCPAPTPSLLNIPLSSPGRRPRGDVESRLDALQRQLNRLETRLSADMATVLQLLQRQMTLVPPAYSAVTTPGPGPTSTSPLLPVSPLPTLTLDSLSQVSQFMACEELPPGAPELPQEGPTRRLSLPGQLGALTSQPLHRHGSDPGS
Sequence of 5-hydroxytryptamine receptor 2B (P41595 whole entry): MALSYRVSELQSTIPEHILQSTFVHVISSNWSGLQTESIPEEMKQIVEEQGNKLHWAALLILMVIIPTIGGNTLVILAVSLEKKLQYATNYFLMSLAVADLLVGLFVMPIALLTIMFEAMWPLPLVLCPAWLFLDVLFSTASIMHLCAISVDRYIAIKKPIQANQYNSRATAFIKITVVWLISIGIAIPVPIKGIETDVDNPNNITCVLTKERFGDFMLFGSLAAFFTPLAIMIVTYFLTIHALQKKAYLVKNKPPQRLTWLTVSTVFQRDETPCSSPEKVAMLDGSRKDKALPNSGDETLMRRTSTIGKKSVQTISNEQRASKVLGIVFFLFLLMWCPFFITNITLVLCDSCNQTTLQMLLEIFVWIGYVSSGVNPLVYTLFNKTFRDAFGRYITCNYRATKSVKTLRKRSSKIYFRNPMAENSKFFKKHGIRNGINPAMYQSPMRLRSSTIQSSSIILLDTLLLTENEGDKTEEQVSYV
Sequence of Insulin receptor (P15127 27-759 limits assumed): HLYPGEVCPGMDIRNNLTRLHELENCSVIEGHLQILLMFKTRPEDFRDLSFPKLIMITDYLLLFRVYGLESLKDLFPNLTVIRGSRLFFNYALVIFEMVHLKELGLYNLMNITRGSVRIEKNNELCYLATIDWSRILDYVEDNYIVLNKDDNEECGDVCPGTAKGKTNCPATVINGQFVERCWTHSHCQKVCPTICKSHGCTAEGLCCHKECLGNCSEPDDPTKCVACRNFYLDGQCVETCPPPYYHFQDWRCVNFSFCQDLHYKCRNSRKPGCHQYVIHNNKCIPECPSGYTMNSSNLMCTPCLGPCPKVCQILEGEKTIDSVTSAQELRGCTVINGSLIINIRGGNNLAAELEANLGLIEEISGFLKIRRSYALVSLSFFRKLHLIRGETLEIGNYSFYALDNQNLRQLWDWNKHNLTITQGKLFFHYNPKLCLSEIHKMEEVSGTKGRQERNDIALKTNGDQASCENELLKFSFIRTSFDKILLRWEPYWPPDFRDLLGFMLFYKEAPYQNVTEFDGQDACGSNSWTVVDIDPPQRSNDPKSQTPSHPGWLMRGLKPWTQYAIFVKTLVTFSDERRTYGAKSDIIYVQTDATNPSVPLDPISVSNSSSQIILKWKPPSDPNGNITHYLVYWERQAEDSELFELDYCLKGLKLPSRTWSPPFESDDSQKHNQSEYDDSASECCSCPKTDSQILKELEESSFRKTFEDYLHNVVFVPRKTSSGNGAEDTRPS
Sequence of Insulin receptor (P15127 764-1383 limits assumed): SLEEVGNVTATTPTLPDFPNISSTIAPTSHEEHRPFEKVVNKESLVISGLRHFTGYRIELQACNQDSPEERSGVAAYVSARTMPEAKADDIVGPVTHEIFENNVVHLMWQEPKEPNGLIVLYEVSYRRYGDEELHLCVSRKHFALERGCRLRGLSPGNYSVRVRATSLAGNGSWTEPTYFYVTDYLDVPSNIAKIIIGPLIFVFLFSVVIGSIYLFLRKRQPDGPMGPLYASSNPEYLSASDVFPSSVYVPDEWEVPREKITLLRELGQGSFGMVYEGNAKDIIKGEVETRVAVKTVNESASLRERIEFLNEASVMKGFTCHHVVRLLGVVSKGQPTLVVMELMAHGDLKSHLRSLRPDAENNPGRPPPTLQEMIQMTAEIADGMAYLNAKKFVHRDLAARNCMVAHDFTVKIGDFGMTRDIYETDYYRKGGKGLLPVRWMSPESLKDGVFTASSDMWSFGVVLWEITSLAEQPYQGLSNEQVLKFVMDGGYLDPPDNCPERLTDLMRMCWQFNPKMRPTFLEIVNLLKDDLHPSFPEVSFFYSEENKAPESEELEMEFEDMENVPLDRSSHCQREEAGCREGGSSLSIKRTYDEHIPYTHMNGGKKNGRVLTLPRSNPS

Compound | IC50 ([1]; cho-k1) | IC50 [2] | Ki [2] | IC50 [3] | Ki [3] | IC50 (Cathepsin G) | IC50 (Insulin receptor) | IC50 [4] | IC50 [5] | IC50 [6] | Ki [6] | IC50 ([1]; read-out: IC50) | Ki ([1]; read-out: Ki) | Ki ([1]; cho-k1) | Ki (Cathepsin G) | Ki (Insulin receptor) | Ki [4] | Ki [5]
O=C(O)COC(=O)Cc1ccccc1Nc1c(Cl)cccc1Cl [ACECLOFENAC] | Not Active | Not Active | Not Active | Not Active | Not Active | Not Active | Not Active | Not Active | Not Active | Not Active | Not Active | – | – | – | – | – | – | –
O=C(O)CCc1nc(-c2ccccc2)c(-c2ccccc2)o1 [OXAPROZIN] | Not Active | Not Active | Not Active | Not Active | Not Active | Not Active | Not Active | Not Active | Not Active | Not Active | Not Active | – | – | – | – | – | – | –
C=CCN1CC[C@]23c4c5ccc(O)c4O[C@H]2/C(=N/N=C2\CC[C@@]4(O)[C@H]6Cc7ccc(O)c8c7[C@@]4(CCN6CC=C)[C@H]2O8)CC[C@@]3(O)[C@H]1C5 [NALOXONAZINE] | Not Active | Not Active | Not Active | Not Active | Not Active | Not Active | Not Active | Not Active | Not Active | Not Active | Not Active | – | – | – | – | – | – | –
O=C(O)CO [GLYCOLIC ACID] | Not Active | Not Active | Not Active | Not Active | Not Active | Not Active | Not Active | Not Active | Not Active | Not Active | Not Active | – | – | – | – | – | – | –
COC(=O)Nc1nc2ccc(Sc3ccccc3)cc2[nH]1 [FENBENDAZOLE] | Not Active | Not Active | Not Active | Not Active | Not Active | Not Active | Not Active | Not Active | Not Active | Not Active | Not Active | – | – | – | – | – | – | –
CC12CCC(CC1)C(C)(C)O2 [EUCALYPTOL] | Not Active | Not Active | Not Active | Not Active | Not Active | Not Active | Not Active | Not Active | Not Active | Not Active | Not Active | – | – | – | – | – | – | –
O=C(Nc1ccc(Cl)c(Cl)c1)c1cc(Cl)cc(Cl)c1O [3,3',4',5-TETRACHLOROSALICYLANILIDE] | Not Active | Not Active | Not Active | Not Active | Not Active | Not Active | Not Active | Not Active | Not Active | Not Active | Not Active | – | – | – | – | – | – | –
Cc1ccnc2c1NC(=O)c1cccnc1N2C1CC1 [NEVIRAPINE] | Not Active | Not Active | Not Active | Not Active | Not Active | Not Active | Not Active | Not Active | Not Active | Not Active | Not Active | – | – | – | – | – | – | –
O=C1CN(/N=C/c2ccc([N+](=O)[O-])o2)C(=O)N1 [NITROFURANTOIN] | Not Active | Not Active | Not Active | Not Active | Not Active | Not Active | Not Active | Not Active | Not Active | Not Active | Not Active | – | – | – | – | – | – | –
O=c1[nH]c2ccccc2c2ccccc12 | Not Active | Not Active | Not Active | Not Active | Not Active | Not Active | Not Active | Not Active | Not Active | Not Active | Not Active | – | – | – | – | – | – | –
COC(=O)C[C@](O)(CCC(C)(C)O)C(=O)O[C@@H]1C(OC)=C[C@]23CCCN2CCc2cc4c(cc2[C@H]13)OCO4 [HARRINGTONINE] | Not Active | Not Active | Not Active | Not Active | Not Active | Not Active | Not Active | Not Active | Not Active | Not Active | Not Active | – | – | – | – | – | – | –
Nc1nc(F)nc2c1ncn2[C@@H]1O[C@H](CO)[C@@H](O)[C@@H]1O [FLUDARABINE] | Not Active | Not Active | Not Active | Not Active | Not Active | Not Active | Not Active | Not Active | Not Active | Not Active | Not Active | – | – | – | – | – | – | –
C=C(Cl)Cl [1,1-DICHLOROETHENE] | Not Active | Not Active | Not Active | Not Active | Not Active | Not Active | Not Active | Not Active | Not Active | Not Active | Not Active | – | – | – | – | – | – | –
CCC1(c2ccccc2)C(=O)NC(=O)NC1=O [PHENOBARBITAL] | Not Active | Not Active | Not Active | Not Active | Not Active | Not Active | Not Active | Not Active | Not Active | Not Active | Not Active | – | – | – | – | – | – | –
O=C(O)c1ccccc1 [BENZOIC ACID] | Not Active | Not Active | Not Active | Not Active | Not Active | Not Active | Not Active | Not Active | Not Active | Not Active | Not Active | – | – | – | – | – | – | –
OC[C@H]1O[C@@H]2O[C@H]3[C@H](O)[C@@H](O)[C@@H](O[C@H]4[C@H](O)[C@@H](O)[C@@H](O[C@H]5[C@H](O)[C@@H](O)[C@@H](O[C@H]6[C@H](O)[C@@H](O)[C@@H](O[C@H]7[C@H](O)[C@@H](O)[C@@H](O[C@H]1[C@H](O)[C@H]2O)O[C@@H]7CO)O[C@@H]6CO)O[C@@H]5CO)O[C@@H]4CO)O[C@@H]3CO [ALFADEX] | Not Active | Not Active | Not Active | Not Active | Not Active | Not Active | Not Active | Not Active | Not Active | Not Active | Not Active | – | – | – | – | – | – | –
c1ccc2sc(SSc3nc4ccccc4s3)nc2c1 [BENZOTHIAZYL DISULFIDE] | – | Not Active | Not Active | Not Active | Not Active | Not Active | Not Active | Not Active | Not Active | Not Active | Not Active | 245 nM | 194 nM | – | – | – | – | –
POVIDONE | Not Active | Not Active | Not Active | Not Active | Not Active | Not Active | Not Active | Not Active | Not Active | Not Active | Not Active | – | – | Not Active | Not Active | Not Active | Not Active | Not Active
C=CCO [ALLYL ALCOHOL] | Not Active | Not Active | Not Active | Not Active | Not Active | Not Active | Not Active | Not Active | Not Active | Not Active | Not Active | – | – | – | – | – | – | –
CHROMIC CHLORIDE | Not Active | Not Active | Not Active | Not Active | Not Active | Not Active | Not Active | Not Active | Not Active | Not Active | Not Active | – | – | Not Active | Not Active | Not Active | Not Active | Not Active
Clc1cc(Cl)c(OCC#CI)cc1Cl [HALOPROGIN] | – | Not Active | Not Active | Not Active | Not Active | Not Active | Not Active | Not Active | Not Active | Not Active | Not Active | 1970 nM | 1560 nM | – | – | – | – | –
C[N+](C)(C)CCOP(=O)([O-])OC[C@H](O)CO | Not Active | Not Active | Not Active | Not Active | Not Active | Not Active | Not Active | Not Active | Not Active | Not Active | Not Active | – | – | – | – | – | – | –
